Measured values taken from PubChem BioAssay (NCI).
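Cultured in 96-well plates, cells were exposed to test compound for 48 hours across five concentrations. TGI denotes the concentration required for complete inhibition of growth.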

Legend:
Experiment in all cases: NCI tumour cell line growth inhibition, 48 h
[1] = tested on: 786-0 renal
[2] = tested on: DU-145 prostate
[3] = tested on: HCC-2998 colon
[4] = tested on: HCT-15 colon
[5] = tested on: HOP-62 NSCLC
[6] = tested on: K-562 leukemia
[7] = tested on: MDA-MB-231 breast
[8] = tested on: OVCAR-4 ovarian
[9] = tested on: TK-10 renal
[10] = tested on: UO-31 renal

Measured: TGI

Cc1ccc(-c2[nH]c(=O)n(C3OC(CO)C(O)C(O)C3O)c(=O)c2C#N)cc1 (stereo not given)
> 100 µM: all assays above

COc1ccc(-c2nc(SCC(=O)N/N=C/c3ccc(N(C)C)cc3)[nH]c2-c2ccc(OC)cc2)cc1
> 100 µM: all assays above

CCCCC(C(=O)NCCNC(=O)CCC(=O)N(C)O)C(=O)NCCNC(=O)CCC(=O)N(C)O
> 100 µM: all assays above

CC(=O)Nc1nc(C#N)[nH]c1C#N
> 100 µM: all assays above
